Legend:
[1] = system: HK-2 cells; test: 72 h MTT cytotoxicity, HK-2; format: cell-based; conditions: human normal kidney cell line
Protocol: (§1) Cytotoxicity. Tumor cells were cultured overnight after inoculation in RPMI-1640 medium or DMEM supplemented with 10% FBS. All cultures were maintained in an incubator in a highly humidified atmosphere of 95% air with 5% CO2 at 37 °C. Growth inhibition was measured with an MTT assay. Briefly, 2800–7000 cells per well in culture medium (100 μL) were plated in 96-well plates (Corning). The cells were treated in triplicate with different concentrations of complexes at 37 ℃ for 72 h. Stock solutions of CDDP and oxoplatin were prepared in PBS, while stock solutions of conjugates I and II and the ligand MSA-2 were prepared in DMSO. The stock solutions were diluted in complete medium (DMSO < 0.5%). An aliquot of MTT solution (40 μL, 2.5 mg·mL^–1) in PBS buffer was added to each well and incubated for 4 h. The supernatant was removed and DMSO (150 μL) was added to solubilize the formazan crystals. The amount of formazan was determined using a microplate reader at 570 nm after the plates were shaken for 30 min. The optical density (OD) was used to calculate the percentage of viable cells relative to untreated control values. Background readings for MTT incubated in cell-free medium were subtracted from each value before calculation. […] The mean IC50 values were calculated using data from three replicates.

[2] = system: Pan02 cells; test: 72 h MTT cytotoxicity, Pan02; format: cell-based, mouse
Protocol: as §1

[3] = system: nuclear DNA of PANC-1 cells; test: platination of cellular DNA by ICP-MS; format: cell-based, human; conditions: 6 h
Protocol: DNA platination. Cancer cells were seeded in 6-well plates at a density of 5×10^5 cells per well. After incubation at 37 °C for 24 h, the cells were treated with each complex for 6 h. The attached cells were harvested with trypsin and washed twice with PBS (4 °C). The cell pellets were lysed with the TIANamp Genomic DNA Kit. The DNA concentration was determined using NanoDrop spectrophotometer, and then the isolated DNA was digested with the same method mentioned above. The final Pt content was determined by ICP-MS.

[4] = system: Pan02 cells; test: Pan02 cell viability with cell death inhibitors / at matched Pt uptake; format: cell-based; conditions: Pan02, I 0.2 μM; necrostatin-1 50 μM, ferrostatin 50 μM
Protocol: For Pan02 cells, the cell viability in the presence of different cell death inhibitors was also determined. Therefore, Pan02 cells were respectively pre-incubated with z-VAD-fmk (50 μM), 3-Methyladenine (100 μM), ferrostatin (50 μM), necrostatin-1 (50 μM) 1 h, and then co-incubated I (0.2 μM) for 72 h. The cell viability was then determined.
Fig. S17. (A) The chemical structure of Pt-E-I. (B) Cellular uptake of Pt (ng Pt/mg protein) in Pan02 cells after exposure to Pt-E-I (5 μM) for 6 h. NH4Cl: cells preincubated with 50 mM NH4Cl; MI: cells preincubated with 50 mM 2-deoxy-D-glucose and 5 μΜ oligomycin. (C) Cellular uptake of Pt (ng Pt/mg protein) in Pan02 cells after exposure to I and Pt-E-I (1, 2, 5, 10, 20 μM) for 6 h. (D) The cell viability of Pan02 treated with I (5 μM) and Pt-E-I (20 μM). (E) Hierarchical clustering of differentially expressed genes between I-treated (5 μM) Pan02 cells, Pt-E-I-treated (20 μM) and nontreated cells.

[5] = system: BxPC3 cells; test: 72 h MTT cytotoxicity, BxPC3; format: cell-based, human
Protocol: as §1

[6] = system: PANC-1 cells; test: 72 h MTT cytotoxicity, PANC-1; format: cell-based, human
Protocol: as §1

[7] = system: Caov3 cells; test: 72 h MTT cytotoxicity, Caov3; format: cell-based, human
Protocol: as §1

[8] = system: PANC-1 cells; test: cellular uptake of Pt by ICP-MS, PANC-1; format: cell-based, human
Protocol: Cellular uptake. All incubations were carried out in the dark. After the designated incubation period, the medium was removed, and the cells were harvested with trypsin and rinsed twice with PBS (1×, 20 mM, pH 7.4), followed by digestion and ICP-MS.
Cancer cells were seeded in a 6-well plate at a density of 5×10^5 cells per well. After incubation for 24 h, the cells were treated with each complex for 6 h.
Cancer cells preincubated with metabolic inhibitor (MIs) were also evaluated. These cells were preincubated with 2-deoxy-D-glucose and oligomycin (50 mM and 5 μM, respectively, 1 h) or NH4Cl (50 mM, 1 h) at 37 ℃ followed by incubation with DMEM containing CDDP, I or II at 37 ℃ for 6 h.
Digestion. Cell pellets were collected by centrifugation and then digested with nitric acid (100 µL) for 2 h at 95 °C, followed by the addition of H2O2 (50 µL) at 95 °C for 0.5 h. HCl (100 µL) was added and kept at 95 °C until the total volume was less than 20 μL. Water was then added to dilute the solution to 1 mL, and the final Pt content was determined by ICP-MS.

[9] = H&E histology of major organs after treatment; format: in vivo, mouse; conditions: C57BL/6 mice after treatment, 10.0 μmol/kg
Protocol: Hematoxylin and eosin staining. Tissue samples were subjected to histopathological examination using hematoxylin and eosin (H&E) staining. Mouse organs (heart, liver, spleen, lungs and kidneys) were collected in 4% paraformaldehyde for proper fixation and then embedded in paraffin using a tissue embedding machine. Sections were prepared in an orderly manner by dewaxing, dehydration, and H&E staining. The tissue morphology was observed under a fluorescence microscope (Olympus BX41, Japan).

[10] = system: Pan02 tumors; test: in vivo antitumor activity, C57BL/6 mice bearing Pan02 tumors; parameters: species or system mouse
Protocol: In vivo antitumor activity. Female C57BL/6 mice (6–8 weeks old) were subcutaneously implanted with pan02 cells (2 × 10^6) in the right flank. Once the tumor volume reached approximately 60 mm^3, the mice were assigned to 4 groups at random (n = 5–8) and received treatment with PBS, CDDP (10.0 μmol/kg), I (10.0 μmol/kg), or a mixture of CDDP (10.0 μmol/kg) and MSA-2 (10.0 μmol/kg). The mice received 9 treatments. Changes in body weight and tumor volume were recorded. All the experimental procedures utilizing mice were performed in accordance with the Guidelines for Care and Use of Laboratory Animals of Nanjing University and experiments were approved by the Institutional Animal Care and Use Committee of Nanjing University (IACUC-2101001, SL-019-00).

[11] = system: cancer cell lines (MCF-7, Caov3, PANC-1, BxPC3, Pan02); test: 72 h MTT cytotoxicity, panel of cancer cell lines; format: cell-based
Protocol: as §1

In the case of `COc1cc2cc(C(=O)CCC(=O)[O][Pt]([NH2])([NH2])([OH])([Cl])[Cl])sc2cc1OC` [conjugate I], the IC50 [1] is reported as 120 ± 10 nM, the IC50 [2] is reported as 50 ± 10 nM and the “platination of cellular DNA” value [3] is reported as “stronger than that by CDDP or conjugate II”. The “cell killing on co-incubation with necroptosis and ferroptosis inhibitors” value [4] was “significant reversal of cell killing”, the IC50 [5] was 20 ± 10 nM and the IC50 [6] was 60 ± 20 nM. For the same molecule, the IC50 [7] was 700 ± 100 nM, the “cellular Pt levels after preincubation with metabolic inhibitors (MIs)” value ([8]; PANC-1, 5 μM, 6 h, 50 mM 2-deoxy-D-glucose and 5 μM oligomycin, versus no MI pretreatment) was “significantly decreased” and the “intracellular Pt levels after pretreatment with endocytosis inhibitor NH4Cl” value ([8]; PANC-1, 5 μM, 6 h, 50 mM NH4Cl) was “did not significantly change”. For the same molecule, the “fold increase of cellular Pt compared with CDDP” value ([8]; PANC-1 cells, 6 h) was 92 fold, the “fold increase of cellular Pt compared with conjugate II” value ([8]; PANC-1 cells, 6 h) was 68 fold and the “cellular Pt content” value ([8]; PANC-1 cells, 6 h incubation, ICP-MS) was 155.7 ng Pt/mg protein. The “histological findings in major organs” value [9] was “only mild vacuolar degeneration in the liver and aggregates containing only a few inflammatory cells in the lungs”, the tumor volume ([10]; C57BL/6 mice, Pan02 tumors, 10.0 μmol/kg every 2 days for 16 days, intravenous) was 106.3 ± 6.2 mm^3 and the “tumor growth after cessation of treatment” value ([10]; monitored another 6 days) was “substantially suppressed”. The “IC50 in these cancer cell lines” value [11] was “submicromolar”.
